Test results reported in ChEMBL document CHEMBL2429768, “Eco-friendly synthesis and antimicrobial activities of substituted-5-(1H-indol-3-yl)methylene)-2,2-dimethyl-1,3-dioxane-4,6-dione derivatives” (2013).
Values after ≈ are worked out from the molar mass of the structure shown.

Experiments:
Assay type in all cases: functional
Aspergillus niger [1] = assay: Antifungal activity against Aspergillus niger at 50 ug/ml after 72 hrs by agar well diffusion method; conditions: read-out: DIZ
Fusarium oxysporum [2] = assay: Antifungal activity against Fusarium oxysporum at 500 ug/ml after 72 hrs by agar well diffusion method; conditions: read-out: DIZ
Fusarium oxysporum [3] = assay: Antifungal activity against Fusarium oxysporum at 300 ug/ml after 72 hrs by agar well diffusion method; conditions: read-out: DIZ
Fusarium oxysporum [4] = assay: Antifungal activity against Fusarium oxysporum at 200 ug/ml after 72 hrs by agar well diffusion method; conditions: read-out: DIZ
Fusarium oxysporum [5] = assay: Antifungal activity against Fusarium oxysporum at 100 ug/ml after 72 hrs by agar well diffusion method; conditions: read-out: DIZ
Fusarium oxysporum [6] = assay: Antifungal activity against Fusarium oxysporum at 50 ug/ml after 72 hrs by agar well diffusion method; conditions: read-out: DIZ
Rhizoctonia solani [7] = assay: Antifungal activity against Rhizoctonia solani at 500 ug/ml after 72 hrs by agar well diffusion method; conditions: read-out: DIZ
Rhizoctonia solani [8] = assay: Antifungal activity against Rhizoctonia solani at 300 ug/ml after 72 hrs by agar well diffusion method; conditions: read-out: DIZ
Rhizoctonia solani [9] = assay: Antifungal activity against Rhizoctonia solani at 200 ug/ml after 72 hrs by agar well diffusion method; conditions: read-out: DIZ
Rhizoctonia solani [10] = assay: Antifungal activity against Rhizoctonia solani at 100 ug/ml after 72 hrs by agar well diffusion method; conditions: read-out: DIZ
Rhizoctonia solani [11] = assay: Antifungal activity against Rhizoctonia solani at 50 ug/ml after 72 hrs by agar well diffusion method; conditions: read-out: DIZ
Bacillus subtilis [12] = assay: Antibacterial activity against Bacillus subtilis at 500 ug/ml after 24 hrs by agar well diffusion method; conditions: read-out: DIZ
Bacillus subtilis [13] = assay: Antibacterial activity against Bacillus subtilis at 300 ug/ml after 24 hrs by agar well diffusion method; conditions: read-out: DIZ
Bacillus subtilis [14] = assay: Antibacterial activity against Bacillus subtilis at 200 ug/ml after 24 hrs by agar well diffusion method; conditions: read-out: DIZ
Bacillus subtilis [15] = assay: Antibacterial activity against Bacillus subtilis at 100 ug/ml after 24 hrs by agar well diffusion method; conditions: read-out: DIZ
Bacillus subtilis [16] = assay: Antibacterial activity against Bacillus subtilis at 50 ug/ml after 24 hrs by agar well diffusion method; conditions: read-out: DIZ
Staphylococcus aureus [17] = assay: Antibacterial activity against Staphylococcus aureus ATCC 6538 at 500 ug/ml after 24 hrs by agar well diffusion method; conditions: ATCC 6538, 24 h, read-out: DIZ
Staphylococcus aureus [18] = assay: Antibacterial activity against Staphylococcus aureus ATCC 6538 at 300 ug/ml after 24 hrs by agar well diffusion method; conditions: ATCC 6538, 24 h, read-out: DIZ
Staphylococcus aureus [19] = assay: Antibacterial activity against Staphylococcus aureus ATCC 6538 at 200 ug/ml after 24 hrs by agar well diffusion method; conditions: ATCC 6538, 24 h, read-out: DIZ
Staphylococcus aureus [20] = assay: Antibacterial activity against Staphylococcus aureus ATCC 6538 at 100 ug/ml after 24 hrs by agar well diffusion method; conditions: ATCC 6538, 24 h, read-out: DIZ
Escherichia coli [21] = assay: Antibacterial activity against Escherichia coli ATCC 8739 at 300 ug/ml after 24 hrs by agar well diffusion method; conditions: ATCC 8739, 24 h, read-out: DIZ
Escherichia coli [22] = assay: Antibacterial activity against Escherichia coli ATCC 8739 at 200 ug/ml after 24 hrs by agar well diffusion method; conditions: ATCC 8739, 24 h, read-out: DIZ
Escherichia coli [23] = assay: Antibacterial activity against Escherichia coli ATCC 8739 at 100 ug/ml after 24 hrs by agar well diffusion method; conditions: ATCC 8739, 24 h, read-out: DIZ
Escherichia coli [24] = assay: Antibacterial activity against Escherichia coli ATCC 8739 at 50 ug/ml after 24 hrs by agar well diffusion method; conditions: ATCC 8739, 24 h, read-out: DIZ
Klebsiella pneumoniae [25] = assay: Antibacterial activity against Klebsiella pneumoniae at 500 ug/ml after 24 hrs by agar well diffusion method; conditions: read-out: DIZ
Klebsiella pneumoniae [26] = assay: Antibacterial activity against Klebsiella pneumoniae at 300 ug/ml after 24 hrs by agar well diffusion method; conditions: read-out: DIZ
Klebsiella pneumoniae [27] = assay: Antibacterial activity against Klebsiella pneumoniae at 200 ug/ml after 24 hrs by agar well diffusion method; conditions: read-out: DIZ
Klebsiella pneumoniae [28] = assay: Antibacterial activity against Klebsiella pneumoniae at 50 ug/ml after 24 hrs by agar well diffusion method; conditions: read-out: DIZ
Escherichia coli [29] = assay: Antibacterial activity against Escherichia coli ATCC 8739 at 500 ug/ml after 24 hrs by agar well diffusion method; conditions: ATCC 8739, 24 h, read-out: DIZ
Klebsiella pneumoniae [30] = assay: Antibacterial activity against Klebsiella pneumoniae at 100 ug/ml after 24 hrs by agar well diffusion method; conditions: read-out: DIZ
Staphylococcus aureus [31] = assay: Antibacterial activity against Staphylococcus aureus ATCC 6538 at 50 ug/ml after 24 hrs by agar well diffusion method; conditions: ATCC 6538, 24 h, read-out: DIZ
Aspergillus flavus [32] = assay: Antifungal activity against Aspergillus flavus at 50 ug/ml after 72 hrs by agar well diffusion method; conditions: read-out: DIZ
Aspergillus flavus [33] = assay: Antifungal activity against Aspergillus flavus at 100 ug/ml after 72 hrs by agar well diffusion method; conditions: read-out: DIZ
Aspergillus flavus [34] = assay: Antifungal activity against Aspergillus flavus after 72 hrs by agar well diffusion method
Aspergillus niger [35] = assay: Antifungal activity against Aspergillus niger after 72 hrs by agar well diffusion method
Fusarium oxysporum [36] = assay: Antifungal activity against Fusarium oxysporum after 72 hrs by agar well diffusion method
Rhizoctonia solani [37] = assay: Antifungal activity against Rhizoctonia solani after 72 hrs by agar well diffusion method
Bacillus subtilis [38] = assay: Antibacterial activity against Bacillus subtilis after 24 hrs by agar well diffusion method
Staphylococcus aureus [39] = assay: Antibacterial activity against Staphylococcus aureus ATCC 6538 after 24 hrs by agar well diffusion method; conditions: ATCC 6538, 24 h
Escherichia coli [40] = assay: Antibacterial activity against Escherichia coli ATCC 8739 after 24 hrs by agar well diffusion method; conditions: ATCC 8739, 24 h
Klebsiella pneumoniae [41] = assay: Antibacterial activity against Klebsiella pneumoniae after 24 hrs by agar well diffusion method
Aspergillus flavus [42] = assay: Antifungal activity against Aspergillus flavus at 500 ug/ml after 72 hrs by agar well diffusion method; conditions: read-out: DIZ
Aspergillus flavus [43] = assay: Antifungal activity against Aspergillus flavus at 300 ug/ml after 72 hrs by agar well diffusion method; conditions: read-out: DIZ
Aspergillus flavus [44] = assay: Antifungal activity against Aspergillus flavus at 200 ug/ml after 72 hrs by agar well diffusion method; conditions: read-out: DIZ
Aspergillus niger [45] = assay: Antifungal activity against Aspergillus niger at 500 ug/ml after 72 hrs by agar well diffusion method; conditions: read-out: DIZ
Aspergillus niger [46] = assay: Antifungal activity against Aspergillus niger at 300 ug/ml after 72 hrs by agar well diffusion method; conditions: read-out: DIZ
Aspergillus niger [47] = assay: Antifungal activity against Aspergillus niger at 200 ug/ml after 72 hrs by agar well diffusion method; conditions: read-out: DIZ
Aspergillus niger [48] = assay: Antifungal activity against Aspergillus niger at 100 ug/ml after 72 hrs by agar well diffusion method; conditions: read-out: DIZ

SMILES: CCn1cc(C=C2C(=O)OC(C)(C)OC2=O)c2cc(OC)ccc21
- zone of inhibition at 50 µg/mL (Aspergillus niger [1]): 6 mm
- zone of inhibition at 500 µg/mL (Fusarium oxysporum [2]): 29 mm
- zone of inhibition at 300 µg/mL (Fusarium oxysporum [3]): 21 mm
- zone of inhibition at 200 µg/mL (Fusarium oxysporum [4]): 16 mm
- zone of inhibition at 100 µg/mL (Fusarium oxysporum [5]): 12 mm
- zone of inhibition at 50 µg/mL (Fusarium oxysporum [6]): 7 mm
- zone of inhibition at 500 µg/mL (Rhizoctonia solani [7]): 29 mm
- zone of inhibition at 300 µg/mL (Rhizoctonia solani [8]): 21 mm
- zone of inhibition at 200 µg/mL (Rhizoctonia solani [9]): 16 mm
- zone of inhibition at 100 µg/mL (Rhizoctonia solani [10]): 12 mm
- zone of inhibition at 50 µg/mL (Rhizoctonia solani [11]): 7 mm
- zone of inhibition at 500 µg/mL (Bacillus subtilis [12]): 21 mm
- zone of inhibition at 300 µg/mL (Bacillus subtilis [13]): 13 mm
- zone of inhibition at 200 µg/mL (Bacillus subtilis [14]): 10 mm
- zone of inhibition at 100 µg/mL (Bacillus subtilis [15]): 8 mm
- zone of inhibition at 50 µg/mL (Bacillus subtilis [16]): 4 mm
- zone of inhibition at 500 µg/mL (Staphylococcus aureus [17]): 22 mm
- zone of inhibition at 300 µg/mL (Staphylococcus aureus [18]): 14 mm
- zone of inhibition at 200 µg/mL (Staphylococcus aureus [19]): 11 mm
- zone of inhibition at 100 µg/mL (Staphylococcus aureus [20]): 9 mm
- zone of inhibition at 300 µg/mL (Escherichia coli [21]): 16 mm
- zone of inhibition at 200 µg/mL (Escherichia coli [22]): 13 mm
- zone of inhibition at 100 µg/mL (Escherichia coli [23]): 10 mm
- zone of inhibition at 50 µg/mL (Escherichia coli [24]): 6 mm
- zone of inhibition at 500 µg/mL (Klebsiella pneumoniae [25]): 31 mm
- zone of inhibition at 300 µg/mL (Klebsiella pneumoniae [26]): 20 mm
- zone of inhibition at 200 µg/mL (Klebsiella pneumoniae [27]): 15 mm
- zone of inhibition at 50 µg/mL (Klebsiella pneumoniae [28]): 8 mm
- zone of inhibition at 500 µg/mL (Escherichia coli [29]): 26 mm
- zone of inhibition at 100 µg/mL (Klebsiella pneumoniae [30]): 13 mm
- zone of inhibition at 50 µg/mL (Staphylococcus aureus [31]): 4 mm
- zone of inhibition at 50 µg/mL (Aspergillus flavus [32]): 4 mm
- zone of inhibition at 100 µg/mL (Aspergillus flavus [33]): 9 mm
- MIC (Aspergillus flavus [34]): 40 µg/mL (≈ 121 µM)
- MIC (Aspergillus niger [35]): 40 µg/mL (≈ 121 µM)
- MIC (Fusarium oxysporum [36]): 35 µg/mL (≈ 106 µM)
- MIC (Rhizoctonia solani [37]): 35 µg/mL (≈ 106 µM)
- MIC (Bacillus subtilis [38]): 30 µg/mL (≈ 91.1 µM)
- MIC (Staphylococcus aureus [39]): 25 µg/mL (≈ 75.9 µM)
- MIC (Escherichia coli [40]): 15 µg/mL (≈ 45.5 µM)
- MIC (Klebsiella pneumoniae [41]): 15 µg/mL (≈ 45.5 µM)
- zone of inhibition at 500 µg/mL (Aspergillus flavus [42]): 23 mm
- zone of inhibition at 300 µg/mL (Aspergillus flavus [43]): 15 mm
- zone of inhibition at 200 µg/mL (Aspergillus flavus [44]): 12 mm
- zone of inhibition at 500 µg/mL (Aspergillus niger [45]): 25 mm
- zone of inhibition at 300 µg/mL (Aspergillus niger [46]): 18 mm
- zone of inhibition at 200 µg/mL (Aspergillus niger [47]): 14 mm
- zone of inhibition at 100 µg/mL (Aspergillus niger [48]): 10 mm
